The data set can be described thus: Acute Oral Toxicity in Mice (Laboratory Strain). The conditions noted are these: mouse, in vivo, aqueous suspension, mg/kg animal body weight, observed until no deaths for at least three days. The protocol: Acute Oral Toxicity in Mice (Laboratory Strain)
Groups of mice were dosed orally with graded doses of the test compound in aqueous suspension and observed until there had been no deaths for at least three days. The acute oral LD50, that is to say the dose in mg/kg animal body weight necessary to kill 50% of the mice, was determined from the numbers of animals for each dose which died during the observation period by reference to published tables.
For orientation: LD50 means the dose at which mortality reaches 50%. A low value points to a more toxic substance. Regarding `CC(=O)O.CC(C)(CO)C1CCN(CC#Cc2cc(C(F)(F)F)cc(C(F)(F)F)c2)CC1` [1 (as acetate), 1-(3,5-bistrifluoromethylphenyl)-3-[4-(1,1-dimethyl-2-hydroxyethyl)piperidino]prop-1-yne acetate], the LD50 was 95 mg/kg.
Turning to `CC(C)(CO)C1CCN(CC#Cc2cc(C(F)(F)F)cc(C(F)(F)F)c2)CC1.O=[N+]([O-])O` [1 (as nitrate), 1-(3,5-bistrifluoromethylphenyl)-3-[4-(1,1-dimethyl-2-hydroxyethyl)piperidino]prop-1-yne nitrate], the median lethal dose (LD50) was 72 mg/kg.
`COCC(C)(C)C1CCN(CC#Cc2cc(C(F)(F)F)cc(C(F)(F)F)c2)CC1.Cl` [2 (as hydrochloride), 1-(3,5-bistrifluoromethylphenyl)-3-[4-(1,1-dimethyl-2-methoxyethyl)piperidino]prop-1-yne hydrochloride] yielded an LD50 of 68 mg/kg.
Compound `CC(C)(CO)C1CCN(CC#Cc2cc(C(F)(F)F)cc(C(F)(F)F)c2)CC1.Cl` [1 (as hydrochloride), 1-(3,5-bistrifluoromethylphenyl)-3-[4-(1,1-dimethyl-2-hydroxyethyl)piperidino]-prop-1yne hydrochloride] came in with a 50% lethal dose (LD50) of 62 mg/kg.
Then `CC(=O)OCC(C)(C)C1CCN(CC#Cc2cc(C(F)(F)F)cc(C(F)(F)F)c2)CC1.Cl` [3 (as hydrochloride), 1-(3,5-bistrifluoromethylphenyl)-3-[4-(1,1-dimethyl-2-acetyloxyethyl)piperidino]prop-1-yne hydrochloride], with 68 mg/kg; and `CC(C)(CO)C1CCN(CC#Cc2cc(C(F)(F)F)cc(C(F)(F)F)c2)CC1.NS(=O)(=O)O` [1 (as sulphamate), 1-(3,5-bistrifluoromethylphenyl)-3-[4-(1,1-dimethyl-2-hydroxyethyl)piperidino]prop-1-yne sulphamate], with 72 mg/kg.
Under `CC(C)(CO)C1CCN(CC#Cc2cc(C(F)(F)F)cc(C(F)(F)F)c2)CC1` [1 (as free base), 1-(3,5-bistrifluoromethylphenyl)-3-[4-(1,1-dimethyl-2-hydroxyethyl)piperidino]prop-1-yne] stands 78 mg/kg; under `CC(C)(C=O)C1CCN(CC#Cc2cc(C(F)(F)F)cc(C(F)(F)F)c2)CC1.Cl` [4 (as hydrochloride), 1-(3,5-bistrifluoromethylphenyl)-3-[4-(1,1-dimethyl-2-oxoethyl)piperidino]prop-1-yne hydrochloride], 68 mg/kg.

Values taken from US4871748A, “Phenylpropargylamine derivatives” (May & Baker Limited, priority 1984, dated 1989).
